Source: patent US20230123334A1, “AMINO LIPID COMPOUND, PREPARATION METHOD THEREFOR, AND APPLICATION THEREOF” (SHENZHEN SHENXIN BIOTECHNOLOGY CO., LTD., priority 2020, published 2023)

System: HEK293 cells
Test: Preliminary screening as DNA vectors, GFP transfection of HEK293 cells
Format: cell-based
Details: amino lipid/DOPE liposome with 75 ng plasmid DNA (psin-EGFP-IRES-Puro); number of GFP-expressing cells divided by total nuclei (Hoechst)
How it was run: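 First, amino lipid and DOPE were vortexed in sodium acetate buffer (pH 5.6) to form liposomes. Next, these were held with 75 ng EGFP plasmid at room temperature for 30 min. Finally, HEK293 cells were added, cultured at 37° C., Hoechst-stained, and GFP+/total nuclei scored by imaging.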

| SMILES | Absolute DNA transfection efficiency in HEK293 cells [%] |
| --- | --- |
| CCCCCCCCCCCCCNc1nc(NCCN(CC)CC)nc(SCCCCCCCCC)n1 [S9N13 D7] | 6.5 |
| CCCCCCCCCCCCCNc1nc(NCCCN2CCOCC2)nc(SCCCCCCCCC)n1 [S9N13 D8] | 11.3 |
| CCCCCCCCCCCCCNc1nc(NCCCN2CCN(C)CC2)nc(SCCCCCCCCC)n1 [S9N13 D9] | 19.9 |
| CCCCCCCCCCCCCNc1nc(NCC2CCN(C)CC2)nc(SCCCCCCCCC)n1 [S9N13 D10] | 29.4 |
| CCCCCCCCCCCCCCCNc1nc(NCCN(C)C)nc(SCCCCCCCCC)n1 [S9N15 D1] | 29.8 |
| CCCCCCCCCCCCCCCNc1nc(NCCN2CCOCC2)nc(SCCCCCCCCC)n1 [S9N15 D2] | 7.3 |
| CCCCCCCCCCCCCCCNc1nc(NCCN2CCCC2)nc(SCCCCCCCCC)n1 [S9N15 D3] | 22.7 |
| CCCCCCCCCCCCCCCNc1nc(NCCN2CCCCC2)nc(SCCCCCCCCC)n1 [S9N15 D4] | 4.2 |
| CCCCCCCCCCCCCCCNc1nc(NCCN2CCN(C)CC2)nc(SCCCCCCCCC)n1 [S9N15 D5] | 16.1 |
| CCCCCCCCCCCCCCCNc1nc(NCCCN(C)C)nc(SCCCCCCCCC)n1 [S9N15 D6] | 13.4 |
| CCCCCCCCCCCCCCCNc1nc(NCCN(CC)CC)nc(SCCCCCCCCC)n1 [S9N15 D7] | 4.6 |
| CCCCCCCCCCCCCCCNc1nc(NCCCN2CCOCC2)nc(SCCCCCCCCC)n1 [S9N15 D8] | 5.3 |
| CCCCCCCCCCCCCCCNc1nc(NCCCN2CCN(C)CC2)nc(SCCCCCCCCC)n1 [S9N15 D9] | 10.9 |
| CCCCCCCCCCCCCCCNc1nc(NCC2CCN(C)CC2)nc(SCCCCCCCCC)n1 [S9N15 D10] | 19.0 |
| CCCCCCCCCCCCCCCCNc1nc(NCCN(C)C)nc(SCCCCCCCCC)n1 [S9N16 D1] | 19.2 |
| CCCCCCCCCCCCCCCCNc1nc(NCCN2CCOCC2)nc(SCCCCCCCCC)n1 [S9N16 D2] | 23.5 |
| CCCCCCCCCCCCCCCCNc1nc(NCCN2CCCC2)nc(SCCCCCCCCC)n1 [S9N16 D3] | 31.3 |
| CCCCCCCCCCCCCCCCNc1nc(NCCN2CCCCC2)nc(SCCCCCCCCC)n1 [S9N16 D4] | 8.1 |
| CCCCCCCCCCCCCCCCNc1nc(NCCN2CCN(C)CC2)nc(SCCCCCCCCC)n1 [S9N16 D5] | 21.7 |
| CCCCCCCCCCCCCCCCNc1nc(NCCCN(C)C)nc(SCCCCCCCCC)n1 [S9N16 D6] | 29.7 |
| CCCCCCCCCCCCCCCCNc1nc(NCCN(CC)CC)nc(SCCCCCCCCC)n1 [S9N16 D7] | 6.4 |
| CCCCCCCCCCCCCCCCNc1nc(NCCCN2CCOCC2)nc(SCCCCCCCCC)n1 [S9N16 D8] | 18.4 |

| SMILES | Absolute DNA transfection efficiency in HEK293 cells [%] |
| --- | --- |
| CCCCCCCCCCCCCCCCNc1nc(NCCCN2CCN(C)CC2)nc(SCCCCCCCCC)n1 [S9N16 D9] | 20.3 |
| CCCCCCCCCCCCCCCCNc1nc(NCC2CCN(C)CC2)nc(SCCCCCCCCC)n1 [S9N16 D10] | 21.8 |
| CCCCCCCCCCCCCCCCCCNc1nc(NCCN(C)C)nc(SCCCCCCCCC)n1 [S9N18 D1] | 24.2 |
| CCCCCCCCCCCCCCCCCCNc1nc(NCCN2CCOCC2)nc(SCCCCCCCCC)n1 [S9N18 D2] | 10.2 |
| CCCCCCCCCCCCCCCCCCNc1nc(NCCN2CCCC2)nc(SCCCCCCCCC)n1 [S9N18 D3] | 33.8 |
| CCCCCCCCCCCCCCCCCCNc1nc(NCCN2CCCCC2)nc(SCCCCCCCCC)n1 [S9N18 D4] | 9.0 |
| CCCCCCCCCCCCCCCCCCNc1nc(NCCN2CCN(C)CC2)nc(SCCCCCCCCC)n1 [S9N18 D5] | 22.9 |
| CCCCCCCCCCCCCCCCCCNc1nc(NCCCN(C)C)nc(SCCCCCCCCC)n1 [S9N18 D6] | 47.5 |
| CCCCCCCCCCCCCCCCCCNc1nc(NCCN(CC)CC)nc(SCCCCCCCCC)n1 [S9N18 D7] | 6.0 |
| CCCCCCCCCCCCCCCCCCNc1nc(NCCCN2CCOCC2)nc(SCCCCCCCCC)n1 [S9N18 D8] | 26.1 |
| CCCCCCCCCCCCCCCCCCNc1nc(NCCCN2CCN(C)CC2)nc(SCCCCCCCCC)n1 [S9N18 D9] | 15.8 |
| CCCCCCCCCCCCCCCCCCNc1nc(NCC2CCN(C)CC2)nc(SCCCCCCCCC)n1 [S9N18 D10] | 11.2 |
| CCCCCCCCCCCCN(CCCCCCCCCCCC)c1nc(NCCN(C)C)nc(SCCCCCCCCC)n1 [S9^2N12 D1] | 0.3 |
| CCCCCCCCCCCCN(CCCCCCCCCCCC)c1nc(NCCN2CCOCC2)nc(SCCCCCCCCC)n1 [S9^2N12 D2] | 0.0 |
| CCCCCCCCCCCCN(CCCCCCCCCCCC)c1nc(NCCN2CCCC2)nc(SCCCCCCCCC)n1 [S9^2N12 D3] | 0.0 |
| CCCCCCCCCCCCN(CCCCCCCCCCCC)c1nc(NCCN2CCCCC2)nc(SCCCCCCCCC)n1 [S9^2N12 D4] | 0.0 |
| CCCCCCCCCCCCN(CCCCCCCCCCCC)c1nc(NCCN2CCN(C)CC2)nc(SCCCCCCCCC)n1 [S9^2N12 D5] | 0.3 |
| CCCCCCCCCCCCN(CCCCCCCCCCCC)c1nc(NCCCN(C)C)nc(SCCCCCCCCC)n1 [S9^2N12 D6] | 1.1 |
| CCCCCCCCCCCCN(CCCCCCCCCCCC)c1nc(NCCN(CC)CC)nc(SCCCCCCCCC)n1 [S9^2N12 D7] | 0.2 |
| CCCCCCCCCCCCN(CCCCCCCCCCCC)c1nc(NCCCN2CCOCC2)nc(SCCCCCCCCC)n1 [S9^2N12 D8] | 0.0 |
| CCCCCCCCCCCCN(CCCCCCCCCCCC)c1nc(NCCCN2CCN(C)CC2)nc(SCCCCCCCCC)n1 [S9^2N12 D9] | 0.6 |
| CCCCCCCCCCCCN(CCCCCCCCCCCC)c1nc(NCC2CCN(C)CC2)nc(SCCCCCCCCC)n1 [S9^2N12 D10] | 1.1 |

| SMILES | Absolute DNA transfection efficiency in HEK293 cells [%] |
| --- | --- |
| CCCCCCCCCCSc1nc(NCCCCCC)nc(NCCN(C)C)n1 [S10N6 D1] | 6.9 |
| CCCCCCCCCCSc1nc(NCCCCCC)nc(NCCN2CCOCC2)n1 [S10N6 D2] | 0.5 |
| CCCCCCCCCCSc1nc(NCCCCCC)nc(NCCN2CCCC2)n1 [S10N6 D3] | 7.3 |
| CCCCCCCCCCSc1nc(NCCCCCC)nc(NCCN2CCCCC2)n1 [S10N6 D4] | 5.7 |
| CCCCCCCCCCSc1nc(NCCCCCC)nc(NCCN2CCN(C)CC2)n1 [S10N6 D5] | 7.0 |
| CCCCCCCCCCSc1nc(NCCCCCC)nc(NCCCN(C)C)n1 [S10N6 D6] | 3.5 |
| CCCCCCCCCCSc1nc(NCCCCCC)nc(NCCN(CC)CC)n1 [S10N6 D7] | 6.6 |
| CCCCCCCCCCSc1nc(NCCCCCC)nc(NCCCN2CCOCC2)n1 [S10N6 D8] | 0.6 |
| CCCCCCCCCCSc1nc(NCCCCCC)nc(NCCCN2CCN(C)CC2)n1 [S10N6 D9] | 5.5 |
| CCCCCCCCCCSc1nc(NCCCCCC)nc(NCC2CCN(C)CC2)n1 [S10N6 D10] | 0.9 |
| CCCCCCCCCCSc1nc(NCCCCCCC)nc(NCCN(C)C)n1 [S10N7 D1] | 8.2 |
| CCCCCCCCCCSc1nc(NCCCCCCC)nc(NCCN2CCOCC2)n1 [S10N7 D2] | 2.4 |
| CCCCCCCCCCSc1nc(NCCCCCCC)nc(NCCN2CCCC2)n1 [S10N7 D3] | 7.4 |
| CCCCCCCCCCSc1nc(NCCCCCCC)nc(NCCN2CCCCC2)n1 [S10N7 D4] | 3.6 |
| CCCCCCCCCCSc1nc(NCCCCCCC)nc(NCCN2CCN(C)CC2)n1 [S10N7 D5] | 7.5 |
| CCCCCCCCCCSc1nc(NCCCCCCC)nc(NCCCN(C)C)n1 [S10N7 D6] | 6.2 |
| CCCCCCCCCCSc1nc(NCCCCCCC)nc(NCCN(CC)CC)n1 [S10N7 D7] | 8.1 |
| CCCCCCCCCCSc1nc(NCCCCCCC)nc(NCCCN2CCOCC2)n1 [S10N7 D8] | 2.6 |
| CCCCCCCCCCSc1nc(NCCCCCCC)nc(NCCCN2CCN(C)CC2)n1 [S10N7 D9] | 4.5 |
| CCCCCCCCCCSc1nc(NCCCCCCC)nc(NCC2CCN(C)CC2)n1 [S10N7 D10] | 1.1 |
| CCCCCCCCCCSc1nc(NCCCCCCCC)nc(NCCN(C)C)n1 [S10N8 D1] | 7.1 |
